Test results as given in ChEMBL document CHEMBL1156476, “Inhibition of mammalian target of rapamycin signaling by 2-(morpholin-1-yl)pyrimido[2,1-alpha]isoquinolin-4-one” (J Biol Chem, 2007).
Values belong to the compound of their own block, whether it stands above or below them. The source made the active and inactive calls. The rule behind the calls is not given here.

Legend:
Fibroblast [1] = test: Antiproliferative activity against TSC1-deficient mouse embryo fibroblasts assessed as decrease in cell number; format: functional, cell-based
[2] = molecular target: Ribosomal protein S6 kinase alpha-3 (Homo sapiens) (UniProt P51812); test: Inhibition of RPS6KA3 at 5 uM
[3] = molecular target: Rho-associated protein kinase 1 (Homo sapiens) (UniProt Q13464); test: Inhibition of ROCK1 at 5 uM
Sequence of Rho-associated protein kinase 1 (Homo sapiens) (Q13464 2-1354 limits assumed): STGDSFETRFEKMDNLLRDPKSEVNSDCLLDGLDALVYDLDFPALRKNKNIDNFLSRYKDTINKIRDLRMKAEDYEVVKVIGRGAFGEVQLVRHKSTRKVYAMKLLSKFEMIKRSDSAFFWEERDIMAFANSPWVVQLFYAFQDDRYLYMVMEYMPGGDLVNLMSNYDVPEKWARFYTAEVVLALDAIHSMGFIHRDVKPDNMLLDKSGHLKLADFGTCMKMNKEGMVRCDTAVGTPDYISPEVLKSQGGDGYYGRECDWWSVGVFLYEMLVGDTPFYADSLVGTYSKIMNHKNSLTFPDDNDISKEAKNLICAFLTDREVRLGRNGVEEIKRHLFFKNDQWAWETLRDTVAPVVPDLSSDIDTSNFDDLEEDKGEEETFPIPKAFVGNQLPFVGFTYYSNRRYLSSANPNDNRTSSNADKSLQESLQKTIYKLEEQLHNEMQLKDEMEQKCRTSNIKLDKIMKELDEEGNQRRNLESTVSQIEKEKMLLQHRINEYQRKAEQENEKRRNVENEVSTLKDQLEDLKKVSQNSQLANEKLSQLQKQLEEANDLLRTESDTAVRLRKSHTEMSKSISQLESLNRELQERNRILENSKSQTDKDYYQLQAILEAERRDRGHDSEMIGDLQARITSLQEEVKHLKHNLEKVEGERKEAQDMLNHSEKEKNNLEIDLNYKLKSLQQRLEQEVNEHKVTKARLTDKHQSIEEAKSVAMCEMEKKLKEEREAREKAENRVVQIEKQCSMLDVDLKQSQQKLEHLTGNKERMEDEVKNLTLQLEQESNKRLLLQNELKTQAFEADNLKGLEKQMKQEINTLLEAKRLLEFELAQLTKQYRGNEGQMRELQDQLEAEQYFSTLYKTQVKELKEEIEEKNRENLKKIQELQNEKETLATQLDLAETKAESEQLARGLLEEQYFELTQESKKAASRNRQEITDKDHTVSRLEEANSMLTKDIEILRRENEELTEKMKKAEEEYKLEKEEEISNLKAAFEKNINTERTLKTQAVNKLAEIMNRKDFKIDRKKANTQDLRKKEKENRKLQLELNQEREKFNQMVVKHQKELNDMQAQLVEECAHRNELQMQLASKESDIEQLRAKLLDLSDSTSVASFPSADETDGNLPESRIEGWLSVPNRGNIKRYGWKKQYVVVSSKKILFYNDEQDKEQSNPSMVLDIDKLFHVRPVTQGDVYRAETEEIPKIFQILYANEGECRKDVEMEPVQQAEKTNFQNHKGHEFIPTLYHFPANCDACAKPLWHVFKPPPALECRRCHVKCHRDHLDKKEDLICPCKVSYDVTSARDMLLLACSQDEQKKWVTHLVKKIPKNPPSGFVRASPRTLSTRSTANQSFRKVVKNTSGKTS

[4] = molecular target: Fibroblast growth factor receptor 1 (Homo sapiens) (UniProt P11362); test: Inhibition of FGFR1 at 5 uM
[5] = molecular target: Mitogen-activated protein kinase 14 (Homo sapiens) (UniProt Q16539); test: Inhibition of MAPK14 at 5 uM
[6] = Inhibition of PDGFR in rat-1 cells assessed as PDGF-induced Erk phosphorylation by Western blot; format: cell-based
[7] = molecular target: Casein kinase II subunit alpha (Homo sapiens) (UniProt P68400); test: Inhibition of CSNK2A1 at 5 uM
Sequence of Casein kinase II subunit alpha (Homo sapiens) (P68400 whole entry, looked up): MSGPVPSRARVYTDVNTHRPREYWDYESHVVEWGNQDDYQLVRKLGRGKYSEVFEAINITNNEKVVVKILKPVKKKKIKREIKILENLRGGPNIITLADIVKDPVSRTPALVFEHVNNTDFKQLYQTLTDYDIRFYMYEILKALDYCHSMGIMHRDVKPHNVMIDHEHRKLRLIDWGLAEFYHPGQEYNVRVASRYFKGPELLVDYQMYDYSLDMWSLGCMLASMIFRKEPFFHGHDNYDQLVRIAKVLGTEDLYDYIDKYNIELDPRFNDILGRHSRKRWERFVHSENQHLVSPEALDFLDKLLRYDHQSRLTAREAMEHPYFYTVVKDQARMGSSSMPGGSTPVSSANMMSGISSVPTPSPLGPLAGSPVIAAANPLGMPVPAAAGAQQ

[8] = molecular target: Alpha-1A adrenergic receptor (Homo sapiens) (UniProt P35348); test: Inhibition of phenylephrine-induced human adrenergic alpha1A receptor activity expressed in rat-1 fibroblasts assessed as S6K1 Thr389 site phosphorylation by Western blot
[9] = molecular target: Mast/stem cell growth factor receptor Kit (Homo sapiens) (UniProt P10721); test: Inhibition of KIT at 5 uM
[10] = molecular target: T1, Serine/threonine-protein kinase mTOR (Homo sapiens, UniProt P42345); test: Inhibition of IGF1-activated mTOR signaling in human M059J glioma cells assessed as S6K1 Thr389 site phosphorylation at 10 uM by Western blot; format: cell-based
[11] = molecular target: Receptor-type tyrosine-protein kinase FLT3 (Homo sapiens) (UniProt P36888); test: Inhibition of FLT3 at 5 uM
[12] = molecular target: T1, Serine/threonine-protein kinase mTOR; test: Inhibition of mTOR kinase activity in raptor immunoprecipitates expressed in human 293F cells at 10 uM by autoradiography; format: cell-based
[13] = molecular target: Ribosomal protein S6 kinase beta-1 (Mus musculus) (UniProt Q8BSK8); test: Blockade of S6K1 phosphorylation in TSC1-deficient mouse embryo fibroblasts assessed as Thr389 phosphorylation at 10 uM after 24 hrs by Western blot
Sequence of Ribosomal protein S6 kinase beta-1 (Mus musculus) (Q8BSK8 whole entry): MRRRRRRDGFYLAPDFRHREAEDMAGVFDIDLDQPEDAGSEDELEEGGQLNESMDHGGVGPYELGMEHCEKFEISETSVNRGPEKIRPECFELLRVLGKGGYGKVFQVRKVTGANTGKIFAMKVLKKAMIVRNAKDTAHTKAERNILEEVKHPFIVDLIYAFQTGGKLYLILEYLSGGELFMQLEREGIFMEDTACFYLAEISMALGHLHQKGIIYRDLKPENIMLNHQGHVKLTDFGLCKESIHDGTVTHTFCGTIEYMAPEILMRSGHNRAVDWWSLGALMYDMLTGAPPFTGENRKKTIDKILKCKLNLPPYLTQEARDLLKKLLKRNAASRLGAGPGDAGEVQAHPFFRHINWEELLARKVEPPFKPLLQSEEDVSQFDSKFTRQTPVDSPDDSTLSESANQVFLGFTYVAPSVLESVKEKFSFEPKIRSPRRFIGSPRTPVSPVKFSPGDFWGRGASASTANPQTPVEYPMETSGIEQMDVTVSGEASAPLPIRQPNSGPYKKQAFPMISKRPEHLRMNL

[14] = molecular target: MAP kinase-activated protein kinase 2 (Homo sapiens) (UniProt P49137); test: Inhibition of MAPKAPK2 at 5 uM
[15] = Antiproliferative activity against TSC1-deficient mouse embryo fibroblasts assessed as decrease in cell number at 10 uM after 2 day relative to control; format: functional, Fibroblast; design: scale not given: the % may be the effect or the level left
[16] = molecular target: Protein kinase C beta type (Homo sapiens) (UniProt P05771); test: Inhibition of PRKCB1 at 5 uM
[17] = molecular target: Mitogen-activated protein kinase kinase kinase kinase 4 (Homo sapiens) (UniProt O95819); test: Inhibition of MAP4K4 at 5 uM
Sequence of Mitogen-activated protein kinase kinase kinase kinase 4 (Homo sapiens) (O95819 2-1239 limits assumed): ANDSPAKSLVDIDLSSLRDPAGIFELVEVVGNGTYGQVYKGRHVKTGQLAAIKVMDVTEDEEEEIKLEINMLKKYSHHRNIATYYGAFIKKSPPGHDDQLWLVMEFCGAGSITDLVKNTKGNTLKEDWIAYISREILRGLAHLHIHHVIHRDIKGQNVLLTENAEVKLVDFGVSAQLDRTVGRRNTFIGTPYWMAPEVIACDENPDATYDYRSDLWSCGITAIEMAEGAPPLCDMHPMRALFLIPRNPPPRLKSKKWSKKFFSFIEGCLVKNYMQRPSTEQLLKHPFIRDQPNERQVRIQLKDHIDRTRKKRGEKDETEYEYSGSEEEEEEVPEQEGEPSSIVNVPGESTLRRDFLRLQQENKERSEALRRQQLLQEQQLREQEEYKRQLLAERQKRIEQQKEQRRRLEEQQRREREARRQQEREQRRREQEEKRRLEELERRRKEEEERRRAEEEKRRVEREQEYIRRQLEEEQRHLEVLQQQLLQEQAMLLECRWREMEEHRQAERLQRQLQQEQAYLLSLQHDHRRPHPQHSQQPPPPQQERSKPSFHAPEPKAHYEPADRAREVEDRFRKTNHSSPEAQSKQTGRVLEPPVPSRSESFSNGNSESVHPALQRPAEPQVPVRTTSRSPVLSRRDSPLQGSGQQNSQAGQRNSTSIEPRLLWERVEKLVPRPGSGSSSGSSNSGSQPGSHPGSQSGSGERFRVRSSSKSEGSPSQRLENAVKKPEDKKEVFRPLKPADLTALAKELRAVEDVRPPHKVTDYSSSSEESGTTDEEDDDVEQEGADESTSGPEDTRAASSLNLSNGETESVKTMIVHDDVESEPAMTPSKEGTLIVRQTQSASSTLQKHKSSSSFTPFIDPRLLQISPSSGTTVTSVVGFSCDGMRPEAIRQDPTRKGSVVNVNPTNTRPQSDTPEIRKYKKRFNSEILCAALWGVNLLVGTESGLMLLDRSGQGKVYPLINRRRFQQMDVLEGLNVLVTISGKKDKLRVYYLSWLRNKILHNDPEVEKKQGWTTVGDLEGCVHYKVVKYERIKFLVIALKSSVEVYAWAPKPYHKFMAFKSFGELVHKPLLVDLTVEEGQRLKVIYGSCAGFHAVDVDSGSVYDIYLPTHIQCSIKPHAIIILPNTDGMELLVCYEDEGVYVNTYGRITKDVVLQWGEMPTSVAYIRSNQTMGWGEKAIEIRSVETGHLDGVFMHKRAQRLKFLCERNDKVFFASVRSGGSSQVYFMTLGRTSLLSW

[18] = molecular target: Cyclin-dependent kinase 1/cyclin B1 (Homo sapiens) (UniProt P06493+P14635); test: Inhibition of CDK1/Cyclin B at 5 uM; format: protein-complex assay
[19] = molecular target: Tyrosine-protein kinase Lck (Homo sapiens) (UniProt P06239); test: Inhibition of LCK at 5 uM
Fibroblast [20] = test: Induction of apoptosis in TSC1-deficient mouse embryo fibroblasts assessed as level of nucleosomes in cell cytoplasm at 10 uM after 24 hrs; format: functional, cell-based
[21] = molecular target: Tyrosine-protein kinase JAK3 (Homo sapiens) (UniProt P52333); test: Inhibition of JAK3 at 5 uM
[22] = molecular target: Serine/threonine-protein kinase Chk1 (Homo sapiens) (UniProt O14757); test: Inhibition of CHEK1 at 5 uM
[23] = molecular target: T1, Serine/threonine-protein kinase mTOR; test: Inhibition of PDGF-activated mTOR signaling in rat-1 fibroblasts assessed as S6K1 Thr389 site phosphorylation at 10 uM by Western blot
[24] = molecular target: T1, Serine/threonine-protein kinase mTOR; test: Inhibition of mTOR kinase activity in epitope-tagged AU1 immunoprecipitates expressed in human 293F cells at 5 uM by autoradiography; format: cell-based
[25] = molecular target: Angiopoietin-1 receptor (Homo sapiens) (UniProt Q02763); test: Inhibition of TEK at 5 uM
[26] = molecular target: Interleukin-1 receptor-associated kinase 4 (Homo sapiens) (UniProt Q9NWZ3); test: Inhibition of IRAK4 at 5 uM
[27] = molecular target: Mitogen-activated protein kinase 3 (Homo sapiens) (UniProt P27361); test: Inhibition of MAPK3 at 5 uM
[28] = molecular target: RAC-alpha serine/threonine-protein kinase (Homo sapiens) (UniProt P31749); test: Inhibition of AKT1 at 5 uM
[29] = molecular target: Insulin-like growth factor 1 receptor (Homo sapiens) (UniProt P08069); test: Inhibition of IGF1R at 5 uM
[30] = system: RAC-alpha serine/threonine-protein kinase (Homo sapiens), P31749 [S473D]; test: Inhibition of Akt S473D mutant transfected in african green monkey COS7 cells assessed as insulin-induced […] phosphorylation by Western blot; format: cell-based; details: COS-7
[31] = molecular target: Dual specificity tyrosine-phosphorylation-regulated kinase 3 (Homo sapiens) (UniProt O43781); test: Inhibition of DYRK3 at 5 uM
[32] = molecular target: Tyrosine-protein kinase SYK (Homo sapiens) (UniProt P43405); test: Inhibition of SYK at 5 uM
[33] = molecular target: T1, Serine/threonine-protein kinase mTOR; test: Inhibition of IGF1-activated mTOR signaling in human M059J glioma cells assessed as Akt Ser473 site phosphorylation at 10 uM by Western blot; format: cell-based
[34] = molecular target: Hepatocyte growth factor receptor (Homo sapiens) (UniProt P08581); test: Inhibition of MET at 5 uM
[35] = molecular target: Insulin receptor (Homo sapiens) (UniProt P06213); test: Inhibition of INSR at 5 uM
Sequence of Insulin receptor (Homo sapiens) (P06213 28-758 limits assumed): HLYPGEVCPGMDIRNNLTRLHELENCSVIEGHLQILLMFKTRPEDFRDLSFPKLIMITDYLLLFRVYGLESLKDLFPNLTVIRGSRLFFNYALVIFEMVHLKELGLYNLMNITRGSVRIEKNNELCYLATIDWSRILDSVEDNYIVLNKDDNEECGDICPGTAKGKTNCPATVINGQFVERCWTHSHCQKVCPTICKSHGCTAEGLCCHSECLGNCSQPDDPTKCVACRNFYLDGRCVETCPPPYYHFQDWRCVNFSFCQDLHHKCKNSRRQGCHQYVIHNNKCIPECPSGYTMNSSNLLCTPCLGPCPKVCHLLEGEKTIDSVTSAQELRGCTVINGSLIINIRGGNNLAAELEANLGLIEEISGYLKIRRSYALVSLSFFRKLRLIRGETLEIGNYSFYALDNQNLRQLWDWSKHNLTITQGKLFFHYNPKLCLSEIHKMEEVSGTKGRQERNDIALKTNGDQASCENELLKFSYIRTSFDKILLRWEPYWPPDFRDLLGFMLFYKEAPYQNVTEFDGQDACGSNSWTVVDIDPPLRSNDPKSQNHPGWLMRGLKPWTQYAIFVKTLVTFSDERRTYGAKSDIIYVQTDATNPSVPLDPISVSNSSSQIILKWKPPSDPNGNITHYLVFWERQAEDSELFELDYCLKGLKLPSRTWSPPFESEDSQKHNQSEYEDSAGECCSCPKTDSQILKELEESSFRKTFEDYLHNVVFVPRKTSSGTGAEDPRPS
Sequence of Insulin receptor (Homo sapiens) (P06213 763-1382 limits assumed): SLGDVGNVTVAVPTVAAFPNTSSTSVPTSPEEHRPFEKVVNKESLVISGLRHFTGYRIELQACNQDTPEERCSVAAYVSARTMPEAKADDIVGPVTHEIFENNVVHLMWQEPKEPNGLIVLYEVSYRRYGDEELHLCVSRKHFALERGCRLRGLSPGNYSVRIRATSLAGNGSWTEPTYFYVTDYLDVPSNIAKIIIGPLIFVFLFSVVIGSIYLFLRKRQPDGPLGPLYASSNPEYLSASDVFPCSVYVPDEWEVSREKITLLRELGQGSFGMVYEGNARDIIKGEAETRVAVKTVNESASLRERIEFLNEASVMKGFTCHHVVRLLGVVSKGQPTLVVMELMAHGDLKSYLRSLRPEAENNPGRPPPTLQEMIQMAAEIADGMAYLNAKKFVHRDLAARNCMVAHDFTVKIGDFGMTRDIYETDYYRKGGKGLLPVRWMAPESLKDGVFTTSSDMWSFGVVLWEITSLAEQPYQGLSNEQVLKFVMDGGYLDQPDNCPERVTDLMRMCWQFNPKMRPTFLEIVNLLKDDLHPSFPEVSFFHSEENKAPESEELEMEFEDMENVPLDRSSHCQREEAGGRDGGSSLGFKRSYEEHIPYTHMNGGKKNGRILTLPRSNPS

[36] = molecular target: Serine/threonine-protein kinase pim-1 (Homo sapiens) (UniProt P11309); test: Inhibition of PIM1 at 5 uM
[37] = Antiproliferative activity against TSC1-deficient mouse embryo fibroblasts assessed as decrease in cell number at 10 uM after 1 day relative to control; format: functional, Fibroblast; design: scale not given: the % may be the effect or the level left
[38] = molecular target: PI3-kinase p110-alpha/p85-alpha (Homo sapiens, UniProt P42336); test: Inhibition of p110alpha/p85-alpha PI3K; format: protein-complex assay
COS-7 = test: Inhibition of Akt T308D mutant transfected in african green monkey COS7 cells assessed as insulin-induced […] phosphorylation by Western blot; format: cell-based
[39] = molecular target: Tyrosine-protein kinase ABL1 (Homo sapiens) (UniProt P00519); test: Inhibition of ABL1 at 5 uM
[40] = molecular target: Epidermal growth factor receptor (Homo sapiens) (UniProt P00533); test: Inhibition of EGFR at 5 uM
[41] = molecular target: Phosphorylase b kinase gamma catalytic chain, liver/testis isoform (Homo sapiens) (UniProt P15735); test: Inhibition of PHKG2 at 5 uM
[42] = molecular target: Phosphatidylinositol 4,5-bisphosphate 3-kinase catalytic subunit alpha isoform (Homo sapiens) (UniProt P42336); test: Inhibition of p110-alpha PI3K assessed as p85alpha autophosphorylation at 25 uM by autoradiography
[43] = molecular target: Aurora kinase A (Homo sapiens) (UniProt O14965); test: Inhibition of STK6 at 5 uM
[44] = molecular target: Casein kinase I isoform gamma-2 (Homo sapiens) (UniProt P78368); test: Inhibition of CSNK1G2 at 5 uM
[45] = molecular target: Platelet-derived growth factor receptor beta (Homo sapiens) (UniProt P09619); test: Inhibition of PDGFRbeta at 5 uM
[46] = molecular target: Dual specificity mitogen-activated protein kinase kinase 1 (Homo sapiens) (UniProt Q02750); test: Inhibition of MAP2K1 at 5 uM
[47] = molecular target: Tyrosine-protein kinase BTK (Homo sapiens) (UniProt Q06187); test: Inhibition of BTK at 5 uM
[48] = molecular target: Glycogen synthase kinase-3 beta (Homo sapiens) (UniProt P49841); test: Inhibition of GSK3B at 5 uM
[49] = molecular target: Ribosomal protein S6 kinase beta-1 (Mus musculus) (UniProt Q8BSK8); test: Blockade of S6K1 phosphorylation in TSC1-deficient mouse embryo fibroblasts assessed as Thr389 phosphorylation at 100 nM after 24 hrs by Western blot
[50] = molecular target: Proto-oncogene tyrosine-protein kinase receptor Ret (Homo sapiens) (UniProt P07949); test: Inhibition of RET at 5 uM
[51] = molecular target: Receptor tyrosine-protein kinase erbB-2 (Homo sapiens) (UniProt P04626); test: Inhibition of ERBB2 at 5 uM
[52] = molecular target: T1, Serine/threonine-protein kinase mTOR; test: Inhibition of PDGF-activated mTOR signaling in rat-1 fibroblasts assessed as Akt Ser473 site phosphorylation at 10 uM by Western blot
[53] = molecular target: Vascular endothelial growth factor receptor 2 (Homo sapiens) (UniProt P35968); test: Inhibition of KDR at 5 uM
Fibroblast [54] = test: Induction of apoptosis in TSC1-deficient mouse embryo fibroblasts assessed as level of nucleosomes in cell cytoplasm at 100 nM after 24 hrs; format: functional, cell-based
[55] = molecular target: T1, Serine/threonine-protein kinase mTOR; test: Inhibition of PDGF-activated mTOR signaling in rat-1 fibroblasts assessed as S6K1 Thr389 site phosphorylation by Western blot
[56] = molecular target: T1, Serine/threonine-protein kinase mTOR; test: Inhibition of mTOR
[57] = molecular target: T1, Serine/threonine-protein kinase mTOR; test: Inhibition of PDGF-activated mTOR signaling in rat-1 fibroblasts assessed as Akt Ser473 site phosphorylation by Western blot
[58] = molecular target: RAC-alpha serine/threonine-protein kinase (Mus musculus) (UniProt P31750); test: Increase in Akt phosphorylation in TSC1-deficient mouse embryo fibroblasts assessed as Ser 473 phosphorylation at 100 nM after 24 hrs by Western blot
[59] = Antiproliferative activity against TSC1-deficient mouse embryo fibroblasts assessed as decrease in cell number at 100 nM after 2 day relative to control; format: functional, Fibroblast; design: scale not given: the % may be the effect or the level left
[60] = molecular target: DNA-dependent protein kinase catalytic subunit (Homo sapiens, UniProt P78527); test: Inhibition of DNA-PK

inhibition [2]: 7% | inhibition [3]: 13% | inhibition [4]: 0% | inhibition [5]: 17% | inhibition [7]: 3% | Activity [8]: Active | inhibition [9]: 13% | Activity [10]: Active | inhibition [11]: 36% | inhibition [12]: 78% | Activity [13]: Active | inhibition [14]: 40% | inhibition [16]: 8% | inhibition [17]: 3% | inhibition [18]: 3% | inhibition [19]: -3% | inhibition [21]: 2% | inhibition [22]: -9% | Activity [23]: Active | inhibition [24]: 67% | inhibition [25]: 12% | inhibition [26]: -5% | inhibition [27]: -3% | inhibition [28]: 5% | inhibition [29]: -8% | Activity [30]: Active | inhibition [31]: 5% | inhibition [32]: 14% | Activity [33]: Active | inhibition [34]: 19% | inhibition [35]: -3% | inhibition [36]: 44% | IC50 [38]: > 100 µM | inhibition [39]: -5% | inhibition [40]: -3% | inhibition [41]: -6% | Activity [42]: inactive | inhibition [43]: 44% | inhibition [44]: 2% | inhibition [45]: -4% | inhibition [46]: -8% | inhibition [47]: 9% | inhibition [48]: 0% | Activity [49]: Active | inhibition [50]: -4% | inhibition [51]: 3% | Activity [52]: Active | inhibition [53]: 0%
SMILES: O=c1cc(N2CCOCC2)nc2c3ccccc3ccn12
Activity (Fibroblast [1]): Dose-dependent effect | Activity [6]: inactive | Activity [15]: 84% | Activity (Fibroblast [20]): Active | Activity [37]: 54% | Activity (COS-7): inactive | Activity (Fibroblast [54]): inactive

Activity [55]: Active | IC50 [56]: 5 µM | Activity [57]: Active
SMILES: O=c1cc(N2CCOCC2)oc2c(-c3ccccc3)cccc12 [LY-294002]

Activity [58]: Active
SMILES: CO[C@H]1C[C@@H]2CC[C@@H](C)[C@@](O)(O2)C(=O)C(=O)N2CCCC[C@H]2C(=O)O[C@H]([C@H](C)C[C@@H]2CC[C@@H](O)[C@H](OC)C2)CC(=O)[C@H](C)/C=C(\C)[C@@H](O)[C@@H](OC)C(=O)[C@H](C)C[C@H](C)/C=C/C=C/C=C/1C [SIROLIMUS]
Activity [59]: 57%

IC50 [60]: 0.27 µM | IC50 [56]: > 100 µM
SMILES: O=C(c1ccccc1)c1ccc(N2CCOCC2)cc1O
